Experimental data taken from US20140155384A1, “COMPOUNDS AND METHODS OF TREATING DIABETES” (Medivation Technologies, Inc., priority 2011, published 2014).

Key:
[1] = biological target: T1, rat adrenergic α1B receptor (Rattus norvegicus, UniProt P15823); experiment: Radioligand binding, adrenergic α1B receptor ([3H]Prazosin); conditions: 0.1 μM compound, Wistar rat liver, read-out: Percentage inhibition of ligand binding, Adrenergic α1B
T1 construct: rat adrenergic α1B receptor obtained from Wistar Rat liver; from tissue; host or cells: Wistar rat liver
T1 sequence (P15823 1-515): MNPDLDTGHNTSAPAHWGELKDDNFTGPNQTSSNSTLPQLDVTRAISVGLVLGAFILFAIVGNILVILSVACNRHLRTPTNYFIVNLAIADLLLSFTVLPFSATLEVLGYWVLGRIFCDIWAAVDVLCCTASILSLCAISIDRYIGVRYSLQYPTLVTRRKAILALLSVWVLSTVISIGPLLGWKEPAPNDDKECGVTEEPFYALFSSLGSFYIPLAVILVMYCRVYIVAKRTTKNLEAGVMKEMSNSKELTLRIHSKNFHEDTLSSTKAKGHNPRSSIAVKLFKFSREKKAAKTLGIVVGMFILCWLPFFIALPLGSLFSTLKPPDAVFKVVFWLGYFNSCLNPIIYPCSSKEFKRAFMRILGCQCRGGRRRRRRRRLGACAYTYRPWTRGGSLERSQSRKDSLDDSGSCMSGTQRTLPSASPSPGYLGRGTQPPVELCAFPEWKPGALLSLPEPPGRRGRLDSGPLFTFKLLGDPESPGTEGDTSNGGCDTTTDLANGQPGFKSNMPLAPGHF
Procedure: To evaluate in radioligand binding assays the activity of compounds, rat adrenergic α1B receptor obtained from Wistar Rat liver (Garcia-S' ainz, J. et al, Biochem. Biophys. Res. Commun. 186:760, 1992; Michel, A. et al, Br. J. Pharmacol. 98:883, 1989) in a modified Tris-HCl buffer (50 mM Tris-HCl buffer, pH 7.4, 0.5 mM EDTA) was used. Compounds were incubated with 0.25 nM [^3H]Prazosin for 60 min at […]. Non-specific binding was estimated in the presence of 10 μM phentolamine. Receptor proteins were filtered and washed, the filters were then counted to determine [^3H]Prazosin specifically bound. Compounds were screened at 1 μM or lower, using 1% DMSO as vehicle. Compounds were tested in this biochemical assay and percent inhibition of specific binding was determined. Biochemical assay results are presented as the percent inhibition of specific binding in Table 2.

[2] = biological target: T2, human recombinant adrenergic α2B receptor (Homo sapiens, UniProt P18089); experiment: Radioligand binding, adrenergic α2B receptor ([3H]Rauwolscine); conditions: 0.1 μM compound, CHO-K1 cells, read-out: Percentage inhibition of ligand binding, Adrenergic α2B
T2 construct: expressed in transfected cells; host or cells: CHO-K1
T2 sequence (P18089 1-450): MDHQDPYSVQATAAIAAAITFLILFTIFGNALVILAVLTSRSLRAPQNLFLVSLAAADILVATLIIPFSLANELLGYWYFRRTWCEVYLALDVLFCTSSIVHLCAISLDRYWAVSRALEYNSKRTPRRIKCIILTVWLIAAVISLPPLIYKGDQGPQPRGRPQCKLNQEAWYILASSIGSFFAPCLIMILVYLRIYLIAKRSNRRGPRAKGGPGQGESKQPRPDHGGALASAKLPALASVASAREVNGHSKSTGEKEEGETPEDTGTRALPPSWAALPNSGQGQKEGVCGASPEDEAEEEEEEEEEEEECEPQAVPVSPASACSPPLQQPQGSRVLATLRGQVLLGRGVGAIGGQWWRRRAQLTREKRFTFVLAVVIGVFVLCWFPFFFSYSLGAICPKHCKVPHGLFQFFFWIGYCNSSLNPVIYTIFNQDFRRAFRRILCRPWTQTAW
Procedure: To evaluate in radioligand binding assays the activity of compounds, human recombinant adrenergic α2B receptor expressed in Chinese hamster ovary (CHO) K1 cells (Uhlen, S. et al, Eur. J. Pharmacol. 343(1):93, 1998) in a modified Tris-HCl buffer (50 mM Tris-HCl, pH 7.4, 12.5 mM MgCl2, 1 mM EDTA, 0.2% BSA) was used. Compounds were incubated with 2.5 nM [^3H]Rauwolscine for 60 min at 25° C. Non-specific binding was estimated in the presence of 10 μM Prazosin. Receptor proteins were filtered and washed, the filters were then counted to determine [^3H]Rauwolscine specifically bound. Compounds were screened at 1 μM or lower, using 1% DMSO as vehicle. Compounds were tested in this biochemical assay and percent inhibition of specific binding was determined. Biochemical assay results are presented as the percent inhibition of specific binding in Table 2.

[3] = biological target: T3, human recombinant adrenergic α2A receptor (Homo sapiens, UniProt P08913); experiment: Radioligand binding, adrenergic α2A receptor ([3H]MK-912); conditions: 0.1 μM compound; Sf9 cells; 1 nM [3H]MK-912; read-out: Percentage inhibition of ligand binding, Adrenergic α2A
T3 construct: expressed in transfected cells; host or cells: insect Sf9 cells
T3 sequence (P08913 1-465): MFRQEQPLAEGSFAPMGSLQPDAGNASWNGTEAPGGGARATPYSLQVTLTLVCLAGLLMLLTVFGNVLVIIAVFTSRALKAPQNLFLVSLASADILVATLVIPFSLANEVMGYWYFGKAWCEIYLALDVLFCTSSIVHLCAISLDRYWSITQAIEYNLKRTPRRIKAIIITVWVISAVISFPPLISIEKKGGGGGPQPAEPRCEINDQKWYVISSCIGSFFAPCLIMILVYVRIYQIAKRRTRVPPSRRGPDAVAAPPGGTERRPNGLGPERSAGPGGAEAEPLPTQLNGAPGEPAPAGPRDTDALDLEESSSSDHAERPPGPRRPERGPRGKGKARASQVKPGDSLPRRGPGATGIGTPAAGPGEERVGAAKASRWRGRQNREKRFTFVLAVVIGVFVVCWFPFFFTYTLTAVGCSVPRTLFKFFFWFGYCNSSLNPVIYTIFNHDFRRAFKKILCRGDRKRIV
Procedure: To evaluate in radioligand binding assays the activity of compounds, human recombinant adrenergic α2A receptor expressed in insect Sf9 cells (Uhlen, S. et al, J. Pharmacol. Exp. Ther. 271:1558, 1994) in a modified Tris-HCl buffer (50 mM Tris-HCl, pH 7.4, 12.5 mM MgCl2, 2 mM EDTA) was used. Compounds were incubated with 1 nM [^3H]MK-912 for 60 min at 25° C. MK912 is (2S-trans)-1,3,4,5′,6,6′,7,12b-octahydro-1′,3′-dimethyl-spiro[2H-benzofuro[2,3-a]quinolizine-2,4′(1′H)-pyrimidin]-2′(3′H)-one hydrochloride Non-specific binding was estimated in the presence of 10 μM WB-4101 (2-(2,6-Dimethoxyphenoxyethyl)aminoethyl-1,4-benzodioxane hydrochloride). Receptor proteins were filtered and washed, the filters were then counted to determine [^3H]MK-912 specifically bound. Compounds were screened at 1 μM or lower, using 1% DMSO as vehicle. Compounds were tested in this biochemical assay and percent inhibition of specific binding was determined. Biochemical assay results are presented as the percent inhibition of specific binding in Table 2.

[4] = biological target: T4, human recombinant adrenergic α1D receptor (Homo sapiens, UniProt P25100); experiment: Radioligand binding, adrenergic α1D receptor ([3H]Prazosin); conditions: 0.1 μM compound; HEK-293 cells; 0.6 nM [3H]Prazosin; read-out: Percentage inhibition of ligand binding, Adrenergic α1D
T4 construct: expressed in transfected cells; host or cells: HEK-293
T4 sequence (P25100 1-572): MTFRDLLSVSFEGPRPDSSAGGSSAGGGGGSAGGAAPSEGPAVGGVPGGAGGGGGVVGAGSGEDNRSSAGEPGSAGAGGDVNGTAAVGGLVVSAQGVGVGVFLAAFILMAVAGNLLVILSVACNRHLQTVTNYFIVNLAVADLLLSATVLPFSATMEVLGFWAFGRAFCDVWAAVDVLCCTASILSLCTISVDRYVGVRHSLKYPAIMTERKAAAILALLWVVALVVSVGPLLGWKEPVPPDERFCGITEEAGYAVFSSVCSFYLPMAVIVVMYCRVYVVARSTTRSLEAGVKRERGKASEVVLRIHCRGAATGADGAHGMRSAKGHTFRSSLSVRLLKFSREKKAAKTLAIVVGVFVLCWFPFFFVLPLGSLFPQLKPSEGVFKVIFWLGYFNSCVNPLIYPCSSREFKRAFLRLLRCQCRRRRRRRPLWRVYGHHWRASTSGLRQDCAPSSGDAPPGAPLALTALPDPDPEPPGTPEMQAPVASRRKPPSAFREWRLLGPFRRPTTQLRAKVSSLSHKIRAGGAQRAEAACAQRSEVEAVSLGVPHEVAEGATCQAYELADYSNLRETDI
Procedure: Compounds were incubated with 0.6 nM [3H]Prazosin for 60 min at 25° C. Non-specific binding was estimated in the presence of 10 μM phentolamine. Receptor proteins were filtered and washed, the filters were then counted to determine [3H]Prazosin specifically bound. Compounds were screened at 1 μM or lower, using 1% DMSO as vehicle. Biochemical assay results are presented as the percent inhibition of specific binding in Table 2.

inhibition at 0.1 µM [1] [%] | inhibition at 0.1 µM [2] [%] | inhibition at 0.1 µM [3] [%] | inhibition at 0.1 µM [4] [%] | Structure (SMILES)
63 | 77 | 31 | 53 | Cc1ccc2c(c1)c1c(n2-c2ccc(-c3cccnc3)cn2)CCN(C)C1 [Compound No. 133, 5-(3,3′-bipyridin-6-yl)-2,8-dimethyl-2,3,4,5-tetrahydro-1H-pyrido[4,3-b]indole]
67 | 70 | 98 | 62 | Cc1ccc2c(c1)c1c(n2-c2cscc2-c2sccc2C)CCN(C)C1 [Compound 39]
77 | 70 | 87 | 76 | Cc1ccc2c(c1)c1c(n2-c2cscc2-c2cccc3[nH]ncc23)CCN(C)C1 [Compound 41]
72 | 43 | 46 | 61 | Cc1ccc2c(c1)c1c(n2-c2ccc(-c3cccc4[nH]ncc34)cn2)CCN(C)C1 [Compound No. 147, 5-(5-(1H-indazol-4-yl)pyridin-2-yl)-2,8-dimethyl-2,3,4,5-tetrahydro-1H-pyrido[4,3-b]indole]
8 | 15 | 24 | 0 | Cc1ccc2c(c1)c1c(n2-c2cccc(-c3ccc4c(ccn4C)c3)c2)CCN(C)C1 [Compound 53, 2,8-dimethyl-5-(3-(1-methyl-1H-indol-5-yl)phenyl)-2,3,4,5-tetrahydro-1H-pyrido[4,3-b]indole]
22 | 39 | 22 | 24 | Cc1ccc2c(c1)c1c(n2-c2cccc3ccncc23)CCN(C)C1 [Compound 58, 5-(isoquinolin-8-yl)-2,8-dimethyl-2,3,4,5-tetrahydro-1H-pyrido[4,3-b]indole]
36 | 90 | 4 | 65 | CC(=O)Nc1ccc(-c2cscc2-n2c3c(c4cc(C)ccc42)CN(C)CC3)cn1 [Compound 56]
54 | 89 | 68 | 58 | Cc1ccc2c(c1)c1c(n2-c2ccccc2-c2ccc(F)nc2)CCN(C)C1 [Compound No. 84, 5-(2-(6-fluoropyridin-3-yl)phenyl)-2,8-dimethyl-2,3,4,5-tetrahydro-1H-pyrido[4,3-b]indole]
13 | 18 | 39 | 11 | Cc1ccc2c(c1)c1c(n2-c2cccc(-c3ccnn3C)c2)CCN(C)C1 [Compound No. 66, 2,8-dimethyl-5-(3-(1-methyl-1H-pyrazol-5-yl)phenyl)-2,3,4,5-tetrahydro-1H-pyrido[4,3-b]indole]
11 | 7 | 23 | 5 | Cc1ccc2c(c1)c1c(n2-c2cccc(-c3ccc(F)cc3)c2)CCN(C)C1 [Compound No. 61, 5-(4′-fluorophenyl-3-yl)-2,8-dimethyl-2,3,4,5-tetrahydro-1H-pyrido[4,3-b]indole]
52 | 78 | 26 | 45 | Cc1ccc2c(c1)c1c(n2-c2ccccc2-c2ccncc2)CCN(C)C1 [Compound 5, 2,8-dimethyl-5-(2-pyridin-4-yl-phenyl)-2,3,4,5-tetrahydro-1H-pyrido[4,3-b]indole]
78 | 78 | 40 | 69 | Cc1ccc2c(c1)c1c(n2-c2ccc(-c3ccc(C)nc3)cn2)CCN(C)C1 [Compound No. 156, 2,8-dimethyl-5-(6′-methyl-3,3′-bipyridin-6-yl)-2,3,4,5-tetrahydro-1H-pyrido[4,3-b]indole]
1 | 6 | 12 | 1 | CC(=O)Nc1ccc(-c2cccc(-n3c4c(c5cc(C)ccc53)CN(C)CC4)c2)cn1 [Compound 45, N-(5-(3-(2,8-dimethyl-3,4-dihydro-1H-pyrido[4,3-b]indol-5(2H)-yl)phenyl)pyridin-2-yl)acetamide]
